Results taken from PubChem BioAssay AID2060907 (Molecular Pharmacology Branch, DTP, NCI, 2025).

System: 388556-164-R-J1-PDC complex spheroid viability
Assay: Anticancer human tumor 388556-164-R-J1-PDC patient-derived colon adenocarcinoma cell line growth inhibition [RAS]
Details: for IC50: curve of first compound; for viability, T/C: stronger effect = lower value
Method in brief: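 Tumour cells grown as complex spheroids with HUVEC endothelial cells and mesenchymal stem cells, treated with RAS pathway inhibitor combinations. Each agent spans half-log steps from near clinical Cmax, or 10 microM where Cmax is unknown.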
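Further: spheroids exposed to compound for 7 days before readout.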
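Wherever viability, T/C is given: 100% = DMSO vehicle control luminescence.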

Compound: C=CC(=O)N1CCN(c2nc(OCC3CCCN3C)nc3c(F)c(-c4nc(N)cc(C)c4C(F)(F)F)c(Cl)cc23)C(C)C1 (configuration not stated) + C#Cc1c(F)ccc2cc(O)cc(-c3ncc4c(N5CC6CCC(C5)N6)nc(OCC56CCCN5CC(F)C6)nc4c3F)c12
- IC50 (second compound 0.0316 µM): > 1000 nM
- IC50 (second compound 0.1 µM): > 1000 nM
- IC50 (second compound 0.316 µM): > 1000 nM
- IC50 (second compound 1 µM): > 1000 nM
- IC50 (second compound 3.16 µM): > 1000 nM
- IC50 (second compound 10 µM): > 1000 nM
- viability, T/C (second compound 0.0316 µM, first compound 0.00316 µM): 102%
- viability, T/C (second compound 0.0316 µM, first compound 0.01 µM): 117%
- viability, T/C (second compound 0.0316 µM, first compound 0.0316 µM): 110%
- viability, T/C (second compound 0.0316 µM, first compound 0.1 µM): 107%
- viability, T/C (second compound 0.0316 µM, first compound 0.316 µM): 110%
- viability, T/C (second compound 0.0316 µM, first compound 1 µM): 111%
- viability, T/C (second compound 0.1 µM, first compound 0.00316 µM): 108%
- viability, T/C (second compound 0.1 µM, first compound 0.01 µM): 109%
- viability, T/C (second compound 0.1 µM, first compound 0.0316 µM): 105%
- viability, T/C (second compound 0.1 µM, first compound 0.1 µM): 109%
- viability, T/C (second compound 0.1 µM, first compound 0.316 µM): 112%
- viability, T/C (second compound 0.1 µM, first compound 1 µM): 102%
- viability, T/C (second compound 0.316 µM, first compound 0.00316 µM): 99.4%
- viability, T/C (second compound 0.316 µM, first compound 0.01 µM): 94.5%
- viability, T/C (second compound 0.316 µM, first compound 0.0316 µM): 97.4%
- viability, T/C (second compound 0.316 µM, first compound 0.1 µM): 102%
- viability, T/C (second compound 0.316 µM, first compound 0.316 µM): 111%
- viability, T/C (second compound 0.316 µM, first compound 1 µM): 96.2%
- viability, T/C (second compound 1 µM, first compound 0.00316 µM): 95.3%
- viability, T/C (second compound 1 µM, first compound 0.01 µM): 93.1%
- viability, T/C (second compound 1 µM, first compound 0.0316 µM): 75.5%
- viability, T/C (second compound 1 µM, first compound 0.1 µM): 89.2%
- viability, T/C (second compound 1 µM, first compound 0.316 µM): 107%
- viability, T/C (second compound 1 µM, first compound 1 µM): 86.5%
- viability, T/C (second compound 3.16 µM, first compound 0.00316 µM): 84.4%
- viability, T/C (second compound 3.16 µM, first compound 0.01 µM): 80.9%
- viability, T/C (second compound 3.16 µM, first compound 0.0316 µM): 85.3%
- viability, T/C (second compound 3.16 µM, first compound 0.1 µM): 92.1%
- viability, T/C (second compound 3.16 µM, first compound 0.316 µM): 99.6%
- viability, T/C (second compound 3.16 µM, first compound 1 µM): 80%
- viability, T/C (second compound 10 µM, first compound 0.00316 µM): 72.3%
- viability, T/C (second compound 10 µM, first compound 0.01 µM): 58.4%
- viability, T/C (second compound 10 µM, first compound 0.0316 µM): 68.7%
- viability, T/C (second compound 10 µM, first compound 0.1 µM): 68.8%
- viability, T/C (second compound 10 µM, first compound 0.316 µM): 76.2%
- viability, T/C (second compound 10 µM, first compound 1 µM): 55.8%
